# Target: T1, human HPK1 protein (Homo sapiens, UniProt Q92918)
# T1 construct: recombinant human HPK1 protein (a.a. 1-346) was expressed in Sf9 insect cells; GST (N); purchased Signalchem M23-11G; host or cells: Sf9 insect cells (baculovirus)
# T1 sequence (Q92918 1-346): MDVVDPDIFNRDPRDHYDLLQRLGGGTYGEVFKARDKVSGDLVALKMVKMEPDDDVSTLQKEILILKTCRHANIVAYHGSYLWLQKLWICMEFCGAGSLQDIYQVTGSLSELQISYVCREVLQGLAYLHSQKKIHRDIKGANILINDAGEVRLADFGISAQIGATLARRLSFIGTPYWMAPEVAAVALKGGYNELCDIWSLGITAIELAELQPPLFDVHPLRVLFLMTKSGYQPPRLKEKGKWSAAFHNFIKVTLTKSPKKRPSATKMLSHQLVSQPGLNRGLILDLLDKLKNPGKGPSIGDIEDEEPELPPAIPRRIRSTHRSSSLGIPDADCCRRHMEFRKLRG
# Assay: Human HPK1 protein TR-FRET assay
# Type: biochemical
# Settings: 1 mM ATP, Table 19
# Summary of the method: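 Read-out was TR-FRET using Eu-labeled anti-phospho-CREB (Ser133) antibody, with the 665/615 nm signal ratio normalised to DMSO-only wells and fitted by a 4-parameter logistic model for IC50. Reactions held 10 nM Sf9-expressed GST-HPK1 (a.a. 1-346), 100 nM CREBtide and 1 mM ATP, run 60 minutes at room temperature, pH 7.5.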
row,Structure (SMILES),IC50
1,CCN1CCN(Cc2ccc(NC(=O)N3CCc4c(C#N)cc(Oc5ccnc6[nH]ccc56)cc4C3C)cc2C(F)(F)F)CC1 (stereo not drawn) [IV-11],0.5 to 5 µM
2,"C[C@H]1c2cc(Oc3ccnc4[nH]ccc34)ccc2CCN1C(=O)Nc1cnc(OC2CCN(C)CC2)c(C(F)(F)F)c1 [compound 7, (S)-7-((1H-pyrrolo[2,3-b]pyridin-4-yl)oxy)-1-methyl-N-(6-((1-methylpiperidin-4-yl)oxy)-5-(trifluoromethyl)pyridin-3-yl)-3,4-dihydroisoquinoline-2(1H)-carboxamide]",< 0.5 µM
3,C[C@H]1c2cc(Oc3ccnc4[nH]ccc34)ccc2CCN1C(=O)Nc1cc(C(F)(F)F)c(OC2CCN(C)CC2)cn1 [IV-9],< 0.5 µM
4,CCN1CCN(Cc2ccc(NC(=O)N3CCc4cc(F)c(Oc5ccnn6cccc56)cc4C3C)cc2C(F)(F)F)CC1 (stereo not drawn) [IV-30],0.5 to 5 µM
5,CCN1CCN(Cc2ccc(NC(=O)N3CCc4ccc(Oc5cc(C)nc6[nH]ccc56)cc4C3)cc2C(F)(F)F)CC1 [III-12],0.5 to 5 µM
6,CCC1CN(C(=O)Nc2ccc(CN3CCN(CC)CC3)c(C(F)(F)F)c2)Cc2cc(Oc3ccnc4[nH]ccc34)ccc21 (stereo not drawn) [IV-22],< 0.5 µM
7,Cc1cc2c(Oc3cnc4c(c3)CN(C(=O)Nc3cnc(OC5CCN(C)CC5)c(C(F)(F)F)c3)CC4C)ncnc2[nH]1 (stereo not drawn) [VII-12],< 0.5 µM
8,CCN1CCN(Cc2ccc(NC(=O)N3CCc4ccc(Oc5ccnc6[nH]c(-c7cnn(C)c7)cc56)cc4[C@@H]3C)cc2C(F)(F)F)CC1 [V-27],< 0.5 µM
9,CCN1CCN(Cc2ccc(NC(=O)N3CCc4ccc(Oc5ccnn6cc(Br)cc56)cc4C3)cc2C(F)(F)F)CC1 [II-24],< 0.5 µM
10,Cc1cc2c(Oc3ccc4c(c3)[C@H](C)N(C(=O)Nc3cnc(OC5CCN(C)CC5C)c(C(F)(F)F)c3)CC4)ccnc2[nH]1 (stereo in doubt) [VI-5],< 0.5 µM
11,CCN1CCC(Oc2ncc(NC(=O)N3CCc4ccc(Oc5ccnc6[nH]c(C)cc56)cc4[C@@H]3C)cc2C(F)(F)F)CC1 [VI-3],< 0.5 µM
12,CCN1CCN(Cc2ccc(NC(=O)N3CCc4ccc(Oc5ccnc6[nH]ccc56)cc4C3=O)cc2C(F)(F)F)CC1 [X-2],0.5 to 5 µM
13,"CCN1CCN(Cc2ccc(NC(=O)N3CCc4ncc(Oc5ccnc6[nH]c(C)cc56)cc4C3C)cc2C(F)(F)F)CC1 (single isomer, unassigned) [VIII-2]",< 0.5 µM
14,Cc1cc2c(Oc3ccc4c(c3)[C@H](C)N(C(=O)Nc3cnc5c(N6CCN(C)CC6)cccc5c3)CC4)ccnc2[nH]1 [X-7],< 0.5 µM
15,CC1CN(C(=O)Nc2cnc(OC3CCN(C)CC3)c(C(F)(F)F)c2)Cc2cc(Oc3ccnc4[nH]ncc34)cnc21 (stereo not drawn) [VII-9],0.5 to 5 µM
16,CCN1CCN(Cc2ccc(NC(=O)N3CCc4ccc(Oc5ccnc(NC(C)=O)c5)cc4C3)cc2C(F)(F)F)CC1 [II-14],< 0.5 µM

# Same assay, conditions: 1 mM ATP, Table 20
row,Structure (SMILES),IC50
1,CC[C@H]1CN(C(=O)Nc2ccc(CN3CCN(C)CC3)c(C(F)(F)F)c2)Cc2cc(Oc3ccnc4[nH]c(C(C)C)cc34)cnc21 [XIV-153],< 0.5 µM
2,CC[C@H]1CN(C(=O)Nc2ccc(CN3CCN(C)CC3)c(C(F)(F)F)c2)Cc2cc(Oc3ccnc4[nH]c(C(=O)N5CC[C@H](O)C5)cc34)cnc21 [XIV-109],< 0.5 µM
3,CCN1CCN(Cc2ccc(NC(=O)N3Cc4cc(Oc5ccnc6[nH]ccc56)cnc4[C@@H](C)C3)cc2C(F)(F)F)CC1 [XI-10],< 0.5 µM
4,CCN1CCN(Cc2ccc(NC(=O)N3CCc4ccc(Oc5cc(NC(=O)OC)ncc5F)cc4[C@@H]3C)cc2C(F)(F)F)CC1 [XIII-13],< 0.5 µM
5,CC[C@@H]1CN(C(=O)Nc2cnc(OC3CCN(C)CC3)c(C(F)(F)F)c2)Cc2cc(Oc3ccnc4[nH]c(C5(O)CC5)cc34)cnc21 [XIV-77],< 0.5 µM
6,CC[C@H]1CN(C(=O)Nc2ccc(CN3CCN(CC)CC3)c(C(F)(F)F)c2)Cc2cc(Oc3ccnc4[nH]c(CCOC)cc34)cnc21 [XIV-22],< 0.5 µM
7,CC[C@H]1CN(C(=O)Nc2ccc(CN3CCNCC3)c(C(F)(F)F)c2)Cc2cc(Oc3ccnn4cc(C(=O)NC)nc34)cnc21 [XIV-129],0.5 to 5 µM
8,Cc1cc2c(Oc3cnc4c(c3)CN(C(=O)Nc3ccc(CN5CCN(C)CC5)c(OC(F)F)c3)C[C@H]4C)ccnc2[nH]1 [XIV-93],< 0.5 µM
